Counter-ions that a name gives are not always drawn. Like-named read-outs stand apart in the source and are kept apart here.
Tests used:
adjuvant arthritis = assay: Adjuvant arthritis (method of Pearson), reduction in the increase in paw volume; assay type: in vivo, male rats of a Wistar-Lewis strain; details: Rattus norvegicus, po; for inhibition in vivo at 12.5 mg/kg: * 12.5 mg/kg p.o.; for inhibition in vivo at 50 mg/kg: 50 mg/kg p.o., once daily day 1 to day 5, rats; for ED50: read-out: ED50 in adjuvant arthritis
Excerpt: 1. […] The experimental animals used were male rats of a Wistar-Lewis strain having a body weight between 130 and 200 g. […] The animals in a control group received only the vehicle. Each preparation and control group comprised 8 animals. The criterion for action was the percentage reduction in the increase in paw volume compared to that of the untreated control group.

[1] = Acute gastral ulcerogenity; set-up: species or system male Sprague-Dawley rats; details: rat, in vivo, po
Method: 2. Acute gastral ulcerogenity
The investigation took place on 10 male Sprague-Dawley rats whose gastric mucous membrane had been sensitized by hunger stress. The body weight of the animals was between 200 and 300 g. While allowing free access to the drinking water, the feed was withdrawn from the animals 48 hours before administration of the test preparations until sacrifice of the animals. The rats were sacrificed 24 hours after oral substance administration, and the stomachs were removed, cleaned under running water and inspected for mucous membrane lesions. All macroscopically visible lesions were regarded as ulcers. The number of animals having ulcers was determined for each dose, and the UD50 values, i.e. the doses at which lesions were caused in 50% of the animals, were calculated from these figures by the method of Litchfield and Wilcoxon (J. Pharmacol. Exp. Ther. 96 (1949), p. 99).

in vivo = details: mouse, ip; for LD50 at 168 h: read-out: Acute toxicity LD50
Method: The LD50 values were determined by a standard method from the mortality occurring within 7 days in NMRI (Naval Medical Research Institute) mice (6 animals per dose) after a single intraperitoneal (i.p.) administration.

acetic acid stretching = assay: Analgesic action: acetic acid stretching test; assay type: in vivo, female mice of a NMRI strain; details: Mus musculus, 0.25 h; oral dose of 158 mg/kg, mice; read-out: Animals relieved of pain in %
Method: The analgesic action of the compounds of the formula I according to the invention was tested by means of the acetic acid stretching test on mice by the method of R. Koster et al., Fed. Prod. 18 (1959), p. 412.
The experimental animals used were female mice of a NMRI strain having a body weight (BW) between 21 and 28 g. Groups of 12 animals each received 0.1 ml/10 g of BW of a 0.6% strength acetic acid solution injected intraperitoneally. The test substances were administered 30 minutes beforehand. Immediately after the injection of acetic acid, the animals were placed alone and the number of typical stretching movements occurring within 15 minutes were counted, which comprise a brief tensing of the stomach muscles including the flank parts and subsequent stretching of the rear body and at least one read extremity.
The test substances were administered orally in a volume of 10 ml/kg of BW in a 1% strength aqueous carboxymethylcellulose (CMC) suspension.

5-lipoxygenase = target: T1, 5-lipoxygenase (Homo sapiens, UniProt P09917); assay: Inhibition of 5-lipoxygenase: LTB4 formation in isolated polymorphonuclear human granulocytes; assay type: cell-based; details: ionophor A 23 187, LTB4 by HPLC, 37° C.
T1 construct: in-vitro experiments on isolated polymorphonuclear human granulocytes; endogenous in cells; host or cells: isolated human polymorphonuclear granulocytes
T1 sequence (P09917 1-674): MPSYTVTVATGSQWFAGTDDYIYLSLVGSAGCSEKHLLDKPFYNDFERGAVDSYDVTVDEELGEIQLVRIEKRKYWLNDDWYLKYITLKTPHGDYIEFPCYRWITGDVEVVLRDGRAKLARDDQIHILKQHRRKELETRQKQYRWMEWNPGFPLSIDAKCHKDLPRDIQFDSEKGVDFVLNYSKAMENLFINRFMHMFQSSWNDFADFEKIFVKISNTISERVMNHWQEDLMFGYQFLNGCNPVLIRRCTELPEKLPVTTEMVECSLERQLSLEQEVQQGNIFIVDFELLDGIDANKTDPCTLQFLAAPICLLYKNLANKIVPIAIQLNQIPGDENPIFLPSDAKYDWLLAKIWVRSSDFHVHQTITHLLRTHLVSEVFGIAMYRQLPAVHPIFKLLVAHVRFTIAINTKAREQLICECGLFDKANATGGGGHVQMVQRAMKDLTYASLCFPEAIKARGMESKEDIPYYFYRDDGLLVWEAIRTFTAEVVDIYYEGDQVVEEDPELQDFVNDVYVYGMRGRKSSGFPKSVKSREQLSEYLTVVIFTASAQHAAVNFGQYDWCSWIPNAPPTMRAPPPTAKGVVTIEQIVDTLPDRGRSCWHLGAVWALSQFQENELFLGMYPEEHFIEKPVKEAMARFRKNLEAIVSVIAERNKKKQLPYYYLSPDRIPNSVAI
Method: 5. Inhibition of 5-lipoxygenase
The inhibitory action of the compounds according to the invention of 5-lipoxygenase-catalysed degradation of arachidonic acid was determined, as usual, in in-vitro experiments on isolated polymorphonuclear human granulocytes. To this purpose, the cells were incubated at 37° C. with the particular test preparation and the formation of pro-inflammatoryleukotriene B4 (LTB4) was induced after 5 minutes using the calcium ionophor A 23 187 (Calbiochem GmbH, Frankfurt/Main, FRG, Biochemical and Immunochemical Catalog 1985, p. 284). The amount of LTB4 liberated over a period of 10 minutes was determined quantitatively with the aid of a UV detector after separation by means of high-pressure liquid chromatography (HPLC).

[2] = tested on: Adriamycin-induced inflammation; assay: Antioxidative action: inhibition of Adriamycin (doxorubicin) induced inflammation; assay type: in vivo, male Sprague-Dawley rats; details: for Protective effect against Adriamycin-induced tissue destruction (in words): rats, oral; for Increase in paw volume: after 72 hours, control 390
Excerpt: 4. Antioxidative action According to current opinion, aggressive oxygen radicals, which are formed to excess during the chronic inflammation process and, as highly toxic inflammation mediators themselves, perpetually maintain the connective tissue destruction proceeding via irreversible lipid peroxidation of the cell membranes, participate prominently in the progressive course, caused by a number of factors, of rheumatoid arthritis and other inflammatory disorders. As a result, antioxidatively active pharmaceuticals which are capable of deactivating these extremely cytotoxic oxygen radicals should allow specific intervention in the chronic course of the inflammation. A suitable animal model for this type of tissue destruction caused by oxygen radicals is Adriamycin (doxorubicin) induced inflammation in rats. The investigations were carried out by the method of D. M. Siegel et al. (Inflammation 4 (1980), p. 233) on male Sprague-Dawley rats having a body weight of between 200 and 230 g in groups each with 7 animals, which received 0.1 mg of Adriamycin, dissolved in 0.1 ml of 0.9% strength sodium chloride solution, by subcutaneous injection into the left rear paw. The increase in paw volume after 72 hours was determined by plethysmography measurement as a measure of the degree of inflammation. The test preparations were administered orally once daily on the 4 successive days, starting with the day of Adriamycin injection, in a 1% strength aqueous carboxymethylcellulose suspension.

[3] = single i.p., NMRI mice, mortality within 7 days
[4] = 50 mg/kg p.o., *Significance p <0.05

Compound: CC1SC(N(C)C)=NN=C1c1cc(C(C)(C)C)c(O)c(C(C)(C)C)c1 (stereo not shown) [Example 22]
- inhibition in vivo at 12.5 mg/kg (adjuvant arthritis; rats): 84%
- TD50 at 24 h [1]: > 200 mg/kg
- LD50 at 168 h (in vivo): 600 to 1200 mg/kg
- responders at 158 mg/kg (acetic acid stretching): 92%

Compound: CNC1=NN=C(c2cc(C(C)(C)C)c(O)c(C(C)(C)C)c2)CS1 [Example 4, 5-(3,5-di-tert.butyl-4-hydroxyphenyl)-2-methylamino-6H-1,3,4-thiadiazine-hydrochloride]
- inhibition in vivo at 50 mg/kg (adjuvant arthritis): 81%
- TD50 at 24 h [1]: 100 to 200 mg/kg
- LD50 at 168 h (in vivo; [3]): 300 to 600 mg/kg
- responders at 158 mg/kg (acetic acid stretching): 83%

Compound: CC(C)(C)c1cc(C2=NN=C(NCc3ccccc3)SC2)cc(C(C)(C)C)c1O [Example 12]
- inhibition in vivo at 50 mg/kg (adjuvant arthritis): 65%
- TD50 at 24 h [1]: > 200 mg/kg
- LD50 at 168 h (in vivo): 600 to 1200 mg/kg

Compound: Cc1cc(C2=NN=C(N(C)C)SC2)cc(C(C)(C)C)c1O [Example 3, 5-(5-tert.butyl-3-methyl-4-hydroxyphenyl)-2-dimethylamino-6H-1,3,4-thiadiazine hydrobromide]
- inhibition in vivo at 50 mg/kg (adjuvant arthritis): 58%
- TD50 at 24 h [1]: > 200 mg/kg
- LD50 at 168 h (in vivo; [3]): 600 to 1200 mg/kg
- IC50 (5-lipoxygenase): 4 µM
- responders at 158 mg/kg (acetic acid stretching): 42%

Compound: COc1ccc2cc(C(C)C(=O)O)ccc2c1 (stereo not shown) [naproxen, 2-(6-methoxy-2-naphthyl)-propionic acid, reference compound]
- ED50 (adjuvant arthritis): 17.5 mg/kg
- inhibition in vivo at 50 mg/kg (adjuvant arthritis): 55%
- Protective effect against Adriamycin-induced tissue destruction (in words) [2]: ineffective

Compound: CN(Cc1ccccc1)C1=NN=C(c2cc(C(C)(C)C)c(O)c(C(C)(C)C)c2)CS1 [Example 13]
- inhibition in vivo at 50 mg/kg (adjuvant arthritis): 71%
- TD50 at 24 h [1]: > 200 mg/kg
- LD50 at 168 h (in vivo): 600 to 1200 mg/kg
- responders at 158 mg/kg (acetic acid stretching): 42%

Compound: CCN(CC)C1=NN=C(c2cc(C(C)(C)C)c(O)c(C(C)(C)C)c2)CS1 [Example 9]
- inhibition in vivo at 12.5 mg/kg (adjuvant arthritis; rats): 55%
- TD50 at 24 h [1]: > 200 mg/kg
- LD50 at 168 h (in vivo): 600 to 1200 mg/kg

Compound: CCN(C)C1=NN=C(c2cc(C(C)(C)C)c(O)c(C(C)(C)C)c2)CS1 [Example 8]
- inhibition in vivo at 12.5 mg/kg (adjuvant arthritis; rats): 61%
- TD50 at 24 h [1]: > 200 mg/kg
- LD50 at 168 h (in vivo): 300 to 600 mg/kg
- IC50 (5-lipoxygenase): 13 µM
- responders at 158 mg/kg (acetic acid stretching): 92%

Compound: CC(C)(C)c1cc(C2=NN=C(N3CCCCC3)SC2)cc(C(C)(C)C)c1O [Example 18]
- inhibition in vivo at 50 mg/kg (adjuvant arthritis): 74%
- TD50 at 24 h [1]: 100 mg/kg
- LD50 at 168 h (in vivo): > 1200 mg/kg

Compound: CCCN(CCC)C1=NN=C(c2cc(C(C)(C)C)c(O)c(C(C)(C)C)c2)CS1 [Example 11]
- inhibition in vivo at 50 mg/kg (adjuvant arthritis): 54%
- TD50 at 24 h [1]: 100 to 200 mg/kg
- LD50 at 168 h (in vivo): > 1200 mg/kg

Compound: CN1CCN(C2=NN=C(c3cc(C(C)(C)C)c(O)c(C(C)(C)C)c3)CS2)CC1 [Example 20]
- inhibition in vivo at 50 mg/kg (adjuvant arthritis): 72%
- TD50 at 24 h [1]: 200 mg/kg
- LD50 at 168 h (in vivo): 150 to 300 mg/kg

Compound: C=CCNC1=NN=C(c2cc(C(C)(C)C)c(O)c(C(C)(C)C)c2)CS1 [Example 14]
- inhibition in vivo at 50 mg/kg (adjuvant arthritis): 75%
- TD50 at 24 h [1]: > 200 mg/kg
- LD50 at 168 h (in vivo): 600 to 1200 mg/kg
- Protective action ([2]; 25 mg/kg p.o.): 36%
- Increase in paw volume ([2]; 25 mg/kg p.o.): 250 µL
- Protective action [2, 4]: 59%
- Increase in paw volume ([2]; 50 mg/kg p.o.): 160 µL
- Protective effect against Adriamycin-induced tissue destruction (in words) [2]: strong, dose-dependent protective effect
- responders at 158 mg/kg (acetic acid stretching): 67%

Compound: CCN(C1=NN=C(c2cc(C(C)(C)C)c(O)c(C(C)(C)C)c2)CS1)C(C)C [Example 10]
- inhibition in vivo at 50 mg/kg (adjuvant arthritis): 82%
- TD50 at 24 h [1]: 200 mg/kg
- LD50 at 168 h (in vivo): > 1200 mg/kg

Compound: CC(C)(C)c1cc(C2=NN=C(N3CCCC3)SC2)cc(C(C)(C)C)c1O [Example 17]
- IC50 (5-lipoxygenase): 10 µM

Compound: CC1CCN(C2=NN=C(c3cc(C(C)(C)C)c(O)c(C(C)(C)C)c3)CS2)CC1 [Example 2, 5-(3,5-di-tert.butyl-4-hydroxyphenyl)-2-(4-methylpiperidino)-6H-1,3,4-thiadiazine hydrobromide]
- inhibition in vivo at 50 mg/kg (adjuvant arthritis): 62%
- TD50 at 24 h [1]: 100 mg/kg
- LD50 at 168 h (in vivo; [3]): 600 to 1200 mg/kg
- responders at 158 mg/kg (acetic acid stretching): 75%

Compound: CN(C)C1=NN=C(c2cc(C(C)(C)C)c(O)c(C(C)(C)C)c2)CS1 [Example 1, 5-(3,5-di-tert.butyl-4-hydroxyphenyl)-2-dimethylamino-6H-1,3,4-thiadiazinehydrobromide]
- inhibition in vivo at 12.5 mg/kg (adjuvant arthritis; rats): 69%
- ED50 (adjuvant arthritis; from the dose/action curve, p.o., rats): 6 mg/kg
- TD50 at 24 h [1]: 200 mg/kg
- selectivity ratio [1]: ~33
- selectivity ratio (in vivo; LD50 (i.p. mice) divided by ED50 (adjuvant arthritis, rats), read-out: LD50/ED50 quotient): ~150
- LD50 at 168 h (in vivo): 600 to 1200 mg/kg
- Protective action ([2]; 25 mg/kg p.o.): 10%
- Increase in paw volume ([2]; 25 mg/kg p.o.): 350 µL
- Protective action [2, 4]: 69%
- Increase in paw volume ([2]; 50 mg/kg p.o.): 120 µL
- Protective effect against Adriamycin-induced tissue destruction (in words) [2]: strong, dose-dependent protective effect
- IC50 (5-lipoxygenase): 9 µM
- responders at 158 mg/kg (acetic acid stretching): 83%

From patent publication US4940790A, “5-(3-alkyl-5-tert.butyl-4-hydroxyphenyl)-2-amino-6H-1,3,4-thiadiazines” (Hoechst Aktiengesellschaft, priority 1987, dated 1990)
